Test results: US5385893A, “Tricyclopolyazamacrocyclophosphonic acids, complexes and derivatives thereof, for use as contrast agents” (The Dow Chemical Company, priority 1993, dated 1995)

Assays:
[1] = Complexation: percent samarium metal as a complex (Sephadex column); type: physicochemical
Procedure: Metal ligand complexes were prepared by various methods. The methods included mixing of the metal and ligand in aqueous solution and adjusting the pH to the desired value. Complexation was done in solutions containing salts and/or buffers as well as water.
For example, a solution of the ligand is prepared by dissolving the ligand in deionized water (about pH=2). A ligand/metal complex was then prepared by combining the ligand solution with aqueous SmCl3.H2 O (3×^-4 M in 0.01N HCl) containing tracer ^153 SmCl3. After thorough mixing, the percent metal as a complex was determined by passing a sample of the complex solution through a Sephadex™ column, eluting with 4:1 saline (0.85% NaCl/NH4 OH), and collecting 2×3 mL fractions. The amount of radioactivity in the combined elutions was then compared with that left on the resin. Under these conditions, complex was removed with the eluent and non-complexed metal is retained on the resin. By this method complexation was determined to usually be about 95% or greater.
Using the above procedure, the complexes of samarium with […]

[2] = Biolocalization of complexes having an overall charge of +1 (bone uptake); type: in vivo; settings: complex having an overall charge of +1
[3] = in vivo; cited from earlier work
[4] = breakdown of the blood/brain barrier allows perfusion; cited from earlier work
[5] = Prohance versus Magnevist; cited from earlier work
[6] = Biodistribution of 153Sm complexes in rats (% injected dose per organ, NaI scintillation counting after tail vein injection); type: in vivo, Sprague Dawley rats; settings: 2 hours post injection; for Biodistribution: Brain / Biodistribution: Heart / Biodistribution: Kidney / Biodistribution: Large Intestine / Biodistribution: Liver / Biodistribution: Lung / Biodistribution: Small Intestine / Biodistribution: Spleen / Biodistribution: Stomach / Biodistribution: Blood / Biodistribution: Bone / Biodistribution: Muscle: i.v. tail vein; for Biodistribution: Blood: blood assumed 6.5% of body weight; for Biodistribution: Bone: femur x 25; for Biodistribution: Muscle: muscle assumed 43% of body weight; for Ratio Bone/Blood / Ratio Bone/Liver / Ratio Bone/Muscle / Ratio Bone/Spleen: ratio of average % injected dose
Procedure: A stock ^159 GdCl3 (or ^153 SMCl3) solution was prepared by adding 2 μL of 3×10^-4 M ^159 GdCl3 in 0.1N HCl to 2 mL of a 3×10^-4 M GdCl3 carrier solution. Appropriate ligand solutions were then prepared in deionized water. The 1:1 ligand/metal complexes were then prepared by combining the ligands (dissolved in 100-500 μL of deionized water) with 2 mL of the stock ^159 GdCl3 solution, followed by through mixing to give an acidic solution (pH=2). The pH of the solution was then raised to 7.0 using 0.1N NaOH. The percent metal as a complex was then determined by passing a sample of the complex solution through a Sephadex™ G-50 column, eluting with 4:1 saline ([…]) and collecting 2×3 mL fractions. The amount of radioactivity in the combined elutions was then compared with that left on the resin (non-complexed metal is retained on the resin). The pH stability profile was generated by adjusting the pH of an aliquot of the complex solution using 1M NaOH or 1M HCl and determining the percent of the metal existing as a complex using the ion exchange method described above. The Sm results are known by expermintal comparison to be identical for complexation and biodistribution of the ligands of this invention.
Sprague Dawley rats were allowed to acclimate for five days then injected with 100 μL of the complex solution via a tail vein. The rats weighed between 150 and 250 g at the time of injection. […] The amount of radioactivity in each tissue was determined by counting in a NaI scintillation counter coupled to a multichannel analyzer. The counts were compared to the counts in 100 μL standards in order to determine the percentage of the dose in each tissue or organ.
The percent dose in blood was estimated assuming blood to be 6.5% of the total body weight. The percent dose in bone was estimated by multiplying the percent dose in the femur by 25. The percent dose in muscle was estimated assuming muscle to be 43% of the total body weight.
In addition to organ biodistribution, chelates of the compounds of Formula (I) were evaluated for efficiency of bone localization since phosphonates are known for their ability to bind to hydroxyapatite.

| SMILES | Biodistribution: Brain [6] [% INJECTED DOSE] | Biodistribution: Heart [6] [% INJECTED DOSE] | Biodistribution: Kidney [6] [% INJECTED DOSE] | Biodistribution: Large Intestine [6] [% INJECTED DOSE] | Biodistribution: Liver [6] [% INJECTED DOSE] | Biodistribution: Lung [6] [% INJECTED DOSE] | Biodistribution: Small Intestine [6] [% INJECTED DOSE] | Biodistribution: Spleen [6] [% INJECTED DOSE] | Biodistribution: Stomach [6] [% INJECTED DOSE] | Biodistribution: Blood [6] [% INJECTED DOSE] | Biodistribution: Bone [6] [% INJECTED DOSE] | Biodistribution: Muscle [6] [% INJECTED DOSE] | Ratio Bone/Blood [6] | Ratio Bone/Liver [6] | Ratio Bone/Muscle [6] | Ratio Bone/Spleen [6] | also measured |
| --- | --- | --- | --- | --- | --- | --- | --- | --- | --- | --- | --- | --- | --- | --- | --- | --- | --- |
| O=C(O)CN1Cc2cccc(n2)CN(CC(=O)O)Cc2cccc(n2)C1 [BP2A, N,N'-diacetic acid-2,11-diaza[3.3]-(2,6)pyridinophane] | – | – | – | – | – | – | – | – | – | – | – | – | – | – | – | – | percent metal as a complex ([1]; ligand:metal ratio of 4:1): 99%; bone uptake of complex [2]: displays bone uptake |
| CCOP(=O)(O)CN1Cc2cccc(n2)CN(CP(=O)(O)OCC)Cc2cccc(n2)C1 [BP2EP, N,N'-bis(methylenephosphonic acid ethyl ester)-2,11-diaza[3.3](2,6)pyridinophane] | – | – | – | – | – | – | – | – | – | – | – | – | – | – | – | – | percent metal as a complex ([1]; ligand:metal ratio of 4:1): 98% |
| O=P(O)(O)CN1Cc2cccc(n2)CN(CP(=O)(O)O)Cc2cccc(n2)C1 [BP2P, N,N'-bis (methylenephosphonic acid) -2,11-diaza[3.3](2,6)pyridinophane] | – | – | – | – | – | – | – | – | – | – | – | – | – | – | – | – | percent metal as a complex ([1]; ligand:metal ratio of 3:1): 95% |
| CNC[C@H](O)[C@@H](O)[C@H](O)[C@H](O)CO.CNC[C@H](O)[C@@H](O)[C@H](O)[C@H](O)CO.O=C([O-])CN(CCN(CC(=O)[O-])CC(=O)O)CCN(CC(=O)[O-])CC(=O)O.[Gd+3] [Magnevist, complex of gadolinium with diethylenetriaminepentaacetic acid] | – | – | – | – | – | – | – | – | – | – | – | – | – | – | – | – | distribution and elimination [3]: freely distribute in extracellular fluid followed by efficient elimination through the renal system; usefulness in the diagnosis of brain lesions [4]: extremely valuable in the diagnosis of brain lesions |
| CC(O)CN1CCN(CC(=O)[O-])CCN(CC(=O)[O-])CCN(CC(=O)[O-])CC1.[Gd+3] (stereo not drawn) [Prohance, [1,4,7-tris(carboxymethyl)-10-(2-hydroxypropyl)-1,4,7,10-tetraazacyclododecanato]-gadolinium] | – | – | – | – | – | – | – | – | – | – | – | – | – | – | – | – | distribution and elimination [3]: freely distribute in extracellular fluid followed by efficient elimination through the renal system; side effects [5]: fewer side effects than Magnevist |
| O=C(O)CN1Cc2cccc(n2)CN(CC(=O)O)Cc2cccc(n2)CN(CC(=O)O)Cc2cccc(n2)C1 [TP3A, N,N',N"-triacetic acid-2,11,20-diaza[3.3.3](2,6)pyridinophane] | – | – | – | – | – | – | – | – | – | – | – | – | – | – | – | – | percent metal as a complex ([1]; ligand:metal ratio of 3:1): 98.6% |
| O=C([O-])CN1Cc2cccc(n2)CN(CC(=O)[O-])Cc2cccc(n2)C1.[153Sm+3] [^153 Sm-BP2A, ^153 Sm N,N'-diacetic acid-2,11-diaza[3.3](2,6)pyridinophane] | 0.01 | 0.02 | 0.95 | 0.04 | 0.68 | 0.06 | 0.80 | 0.01 | 0.05 | 0.43 | 27.98 | 0.80 | 65 | 41 | 35 | 2,798 | – |
| CCOP(=O)([O-])CN1Cc2cccc(n2)CN(CP(=O)([O-])OCC)Cc2cccc(n2)C1.[153Sm+3] [^153 Sm-BP2EP, ^53 Sm N,N'-bis(methylenephosphonic acid ethyl ester)-2,11-diaza[3.3](2,6)pyridinophane] | 0.01 | 0.04 | 0.74 | 0.25 | 5.97 | 0.19 | 0.33 | 0.32 | 0.36 | 0.45 | 39.82 | 1.21 | 88 | 7 | 33 | 124 | – |
| O=P([O-])([O-])CN1Cc2cccc(n2)CN(CP(=O)([O-])[O-])Cc2cccc(n2)C1.[153Sm+3] [^153 Sm-BP2P, ^153 Sm N,N'-bis(methylenephosphonic acid)-2,11-diaza[3.3](2,6)pyridinophane] | 0.01 | 0.07 | 1.21 | 0.13 | 3.71 | 0.17 | 0.39 | 0.05 | 0.20 | 0.87 | 60.08 | 1.53 | 69 | 16 | 39 | 1,201 | – |
| O=C([O-])CN1Cc2cccc(n2)CN(CC(=O)[O-])Cc2cccc(n2)CN(CC(=O)[O-])Cc2cccc(n2)C1.[153Sm+3] [^153 Sm-TP3A, ^153 Sm N,N',N"-triacetic acid-2,11,20-diaza[3.3.3](2,6)pyridinophane] | – | 0.016 | 0.639 | 0.156 | 0.570 | 0.047 | 1.426 | 0.068 | 0.036 | 0.437 | 1.495 | 0.833 | 3 | 3 | 2 | 22 | – |
